Reference: US7834011B2, “Heterocyclylalkyl derivatives as novel inhibitors of histone deacetylase” (Janssen Pharmaceutica N.V., priority 2006, dated 2010)
Converted amounts (≈) assume the structure as drawn. Read-outs that look alike come from different tables or passages of the source.

Key:
[1] = molecular target: histone deacetylase (HeLa nuclear extracts); experiment: In vitro assay for inhibition of histone deacetylase with fluorescent-labelled substrate (Fluor de Lys); format: biochemical
Source text: The in vitro assay for inhibition of histone deacetylase (see example C.1) measures the inhibition of HDAC enzymatic activity obtained with the compounds of formula (I).
The HDAC Fluorescent Activity Assay/Drug Discovery Kit of Biomol (cat. No: AK-500-0001) was used. The HDAC Fluorescent Activity Assay is based on the Fluor de Lys (Fluorogenic Histone deAcetylase Lysyl) substrate and developer combination. The Fluor de Lys substrate, comprises an acetylated lysine side chain. Deacetylation of the substrate sensitizes the substrate so that, in the second step, treatment with the Fluor de Lys developer produces a fluorophore.
HeLa nuclear extracts (supplier: Biomol) were incubated at 60 μg/ml with 75 μM of substrate. The Fluor de Lys substrate was added in a buffer containing 25 mM Tris, 137 mM NaCl, 2.7 mM KCl and 1 mM MgCl2.6H2O at pH 7.4. After 30 min, 1 volume of the developer was added. The fluorophore was excited with 355 nm light and the emitted light (450 nm) was be detected on a fluorometric plate reader.
For each experiment, controls (containing HeLa nuclear extract and buffer), a blank incubation (containing buffer but no HeLa nuclear extract) and samples (containing compound dissolved in DMSO and further diluted in buffer and HeLa nuclear extract) were run in parallel. In first instance, compounds were tested at a concentration of 10^−5M. […] All sample were tested 4 times. In each test the blank value was subtracted from both the control and the sample values. The control sample represented 100% of substrate deactylation. For each sample the fluorescence was expressed as a percentage of the mean value of the controls. […] Herein the effects of test compounds are expressed as pIC50 (the negative log value of the IC50-value) (see Table F-2).

[2] = system: A2780 ovarian carcinoma cells; experiment: Antiproliferative activity on A2780 cells (MTT); format: cell-based; settings: Homo sapiens, 96 h, four days of incubation, read-out: Cellular activity pIC50 C.2 (converted)
Experimental: Cellular activity of the compounds of formula (I) was determined on A2780 tumour cells using a colorimetric assay for cell toxicity or survival (Mosmann Tim, Journal of Immunological Methods 65: 55-63, 1983)(see example C.2).
All compounds tested were dissolved in DMSO and further dilutions were made in culture medium. Final DMSO concentrations never exceeded 0.1% (v/v) in cell proliferation assays. Controls contained A2780 cells and DMSO without compound and blanks contained DMSO but no cells. MTT was dissolved at 5 mg/ml in PBS. A glycine buffer comprised of 0.1 M glycine and 0.1 M NaCl buffered to pH 10.5 with NaOH (1 N) was prepared (all reagents were from Merck).
The human A2780 ovarian carcinoma cells (a kind gift from Dr. T. C. Hamilton [Fox Chase Cancer Centre, Pennsylvania, USA]) were cultured in RPMI 1640 medium supplemented with 2 mM L-glutamine, 50 μg/ml gentamicin and 10% fetal calf serum. Cells were routinely kept as monolayer cultures at 37° C. in a humidified 5% CO2 atmosphere. Cells were passaged once a week using a trypsin/EDTA solution at a split ratio of 1:40. All media and supplements were obtained from Life Technologies. Cells were free of mycoplasma contamination as determined using the Gen-Probe Mycoplasma Tissue Culture kit (supplier: BioMérieux).
Cells were seeded in NUNC™ 96-well culture plates (Supplier: Life Technologies) and allowed to adhere to the plastic overnight. Densities used for plating were 1500 cells per well in a total volume of 200 μl medium. After cell adhesion to the plates, medium was changed and drugs and/or solvents were added to a final volume of 200 μl. Following four days of incubation, medium was replaced by 200 μl fresh medium and cell density and viability was assessed using an MTT-based assay. To each well, 25 μl MTT solution was added and the cells were further incubated for 2 hours at 37° C. The medium was then carefully aspirated and the blue MTT-formazan product was solubilized by addition of 25 μl glycine buffer followed by 100 μl of DMSO. […] Within an experiment, the results for each experimental condition are the mean of 3 replicate wells. For initial screening purposes, compounds were tested at a single fixed concentration of 10^−6 M. For active compounds, the experiments were repeated to establish full concentration-response curves. For each experiment, controls (containing no drug) and a blank incubation (containing no cells or drugs) were run in parallel. The blank value was subtracted from all control and sample values. For each sample, the mean value for cell growth (in absorbance units) was expressed as a percentage of the mean value for cell growth of the control. […] Herein the effects of test compounds are expressed as pIC50 (the negative log value of the IC50-value)(see Table F-2).

[3] = Solubility at pH 2.3 (chemiluminescent nitrogen detector); format: physicochemical; settings: pH 2.3, aqueous buffer; read-out: Solubility C.3.c. pH = 2.3
Source text: In a third method the solubility of a compound at different pH's can be measured with the use of a Chemiluminescent Nitrogen Detector (see example C.3.c).
The solubility of a compound, at pH 2.3, can also be measured with the use of a chemiluminescent nitrogen detector (see Table F-2).

[4] = system: p21 promoter; experiment: p21 induction in vivo method C.6.c (reporter tumour fluorescence in nude mice); settings: 20-40 mpk daily during 6 days, orally or intraveinally, ranked inactive, weaker, identical or better than R306465
Experimental: The last method is an in vivo method wherein mice are used for screening the pharmaceutical activity of a compound. The above described stably transformed tumour cells can be administered to mice in an amount sufficient to effect production of a tumour. After the tumour cells had sufficient time to form a tumour, a potentially active compound can be administered to the animals and the effect of said compound on the tumour cells is evaluated by measuring the expression of the reporter gene. Incubation with pharmaceutical active compounds will result in an increase of reporter gene expression compared to the control levels (see example C.6.c.)
A selected clone was injected subcutaneous (10^7 cells/200 μl) into the flank of nude mice and a calliper measurable tumour was obtained after 12 days. From day 12 on, animals were dosed, orally or intraveinally, daily during 6 days with solvent and 20-40 mpk compound (4-10 animals each). Tumours were evaluated for fluorescence by the in-house developed Automated Whole Body Imaging System (Fluorescent stereomicroscope type Olympus® SZX12 equipped with a GFP filter and coupled to a CCD camera type JAI® CV-M90 controlled by a software package based on the IMAQ Vision Software from National Instruments®). As reference, compound R306465 (WO03/76422) was used.

[5] = not given; remark: listed apart in the source
[6] = Kinetic solubility in aqueous media C.3.a (nephelometer); format: physicochemical; settings: aqueous buffer, kinetic from dmso stock; phosphate citrate buffer pH 7.4, turbidity; read-out: Kinetic solubility score (C.3.a)
Experimental: The solubility of a compound measures the ability of a compound to stay in solution. In a first method the ability of a compound to stay in aqueous solution upon dilution (see example C.3.a) is measured. DMSO-stock solutions are diluted with a single aqueous buffer solvent in 3 consecutive steps. For every dilution turbidity is measured with a nephelometer.
In the first dilution step, 10 μl of a concentrated stock-solution of the active compound, solubilized in DMSO (5 mM), was added to 100 μl phosphate citrate buffer pH 7.4 and mixed. In the second dilution step, an aliquot (20 μl) of the first dilution step was further dispensed in 100 μl phosphate citrate buffer pH 7.4 and mixed. Finally, in the third dilution step, a sample (20 μl) of the second dilution step was further diluted in 100 μl phosphate citrate buffer pH 7.4 and mixed. All dilutions were performed in 96-well plates. Immediately after the last dilution step the turbidity of the three consecutive dilution steps were measured with a nephelometer. Dilution was done in triplicate for each compound to exclude occasional errors. Based on the turbidity measurements a ranking is performed into 3 classes. Compounds with high solubility obtained a score of 3 and for this compounds the first dilution is clear. Compounds with medium solubility obtained a score of 2. […]

[7] = Metabolic stability with rat hepatocytes cell culture C.5.b; format: in vitro ADME; settings: male, Sprague Dowley, rat hepatocyte cell cultures, read-out: in vitro half-life
Source text: Metabolism of drugs means that a lipid-soluble xenobiotic or endobiotic compound is enzymatically transformed into (a) polar, water-soluble, and excretable metabolite(s). The major organ for drug metabolism is the liver. […] However, some metabolites may have enhanced activity or toxic effects. Thus drug metabolism may include both “detoxication” and “toxication” processes. One of the major enzyme systems that determine the organism's capability of dealing with drugs and chemicals is represented by the cytochrome P450 monooxygenases, which are NADPH dependent enzymes. Metabolic stability of compounds can be determined in vitro with the use of subcellular human tissue (see example C.5.a.). Here metabolic stability of the compounds is expressed as % of drug metabolised after 15 minutes incubation of these compounds with microsomes. Quantitation of the compounds was determined by LC-MS analysis. Metabolic stability of compounds can also be determined by calculating the half live of compounds in rat hepatocyte cells (see example C.5.b.).
Rat hepatocytes were isolated from male Sprague Dowley rats. The compounds were dissolved to a 5 mM stock solution in 100% DMSO and incubated at a final concentration of 5 μM for 0, 15, 30, 60 and 120 min with rat hepatocyte cell cultures (0.5 million viable cells/0.5 ml) using 24-well plates.
Samples were prepared for LC-MS by addition of two volumes of DMSO. The samples were thoroughly shaken and subsequently centrifuged at 900 g for 10 min (room temperature). All experiments were performed in triplicate. Of the resulting supernatant 50 μl was analysed by LC-MS.
For LC-MS, elution of samples was performed on a Hypersil BDS C18 column (50×4.6 mm, 5 μm, Thermohypersil, UK). […]
Total injection volume of samples was 50 μL. […] The mass spectrometer was operated in positive ion mode in SIM adjusted to the mass of M+H with a scan width of 1 Da for quantification purposes. […] The metabolic stability of compounds in rat hepatocytes was expressed as in vitro half-lives. […]

COc1cc(N)c(Cl)cc1C(=O)NC1CCN(CCCOc2ccc(F)cc2)CC1OC (centres unmarked) [Cisapride]
% metabolism (human, 15 min, 5 μM): 45%

Cn1nc(CNCC2CCN(c3ncc(C(=O)NO)cn3)CC2)c2ccccc21 [Compound 1]
Enzymatic activity pIC50 C.1 [1]: 8.4 | IC50 [2]: 20 nM | solubility [3]: 2500 µg/mL (≈ 6.32 mM) | tumour fluorescence ranked against R306465 [4]: better than R306465 | melting point [5]: 197 °C

Cn1nnc2ccc(CNCC3CCN(c4ncc(C(=O)NO)cn4)CC3)cc21 [Compound 2]
Enzymatic activity pIC50 C.1 [1]: 8.1 | IC50 [2]: 251 nM | solubility [3]: 2100 µg/mL (≈ 5.3 mM) | solubility kinetic [6]: > 455 µM | melting point [5]: 206 °C

O=C(NO)c1cnc(N2CCC(CNCc3n[nH]c4ccccc34)CC2)nc1 [Compound 22]
Enzymatic activity pIC50 C.1 [1]: 9.4 | IC50 [2]: 79.4 nM | solubility [3]: 2200 µg/mL (≈ 5.77 mM) | half-life at 5 μM [7]: 30 to 55 min

O=C(NO)c1cnc(N2CCN(S(=O)(=O)c3ccc4ccccc4c3)CC2)nc1 [Compound R306465, reference compound]
half-life at 5 μM [7]: 8 min

CCCO [propanol]
% metabolism (15 min incubation with microsomes, compound 5 μM): 25%
